BigSolDB 2.1

CN1CCN(C2=Nc3cc(Cl)ccc3Nc3ccccc32)CC1
Settings | solubility (mole fraction)
in 1,2-dichloroethane, 283.15 K | 0.0117
in 1,2-dichloroethane, 288.15 K | 0.0157
in 1,2-dichloroethane, 293.15 K | 0.0183
in 1,2-dichloroethane, 298.15 K | 0.0215
in 1,2-dichloroethane, 303.15 K | 0.0243
in 1,2-dichloroethane, 308.15 K | 0.0285
in 1,2-dichloroethane, 313.15 K | 0.0314
in 1,2-dichloroethane, 318.15 K | 0.0386
in 1,2-dichloroethane, 323.15 K | 0.0464
in 1,2-dichloroethane, 328.15 K | 0.0573
in 1,2-dichloroethane, 333.15 K | 0.0648
in DMF, 283.15 K | 0.0781
in DMF, 288.15 K | 0.0844
in DMF, 293.15 K | 0.0893
in DMF, 298.15 K | 0.0936
in DMF, 303.15 K | 0.101
in DMF, 308.15 K | 0.111
in DMF, 313.15 K | 0.122
in DMF, 318.15 K | 0.133
in DMF, 323.15 K | 0.145
in DMF, 328.15 K | 0.155
in DMF, 333.15 K | 0.17
in DMSO, 293.15 K | 0.0596
in DMSO, 298.15 K | 0.064
in DMSO, 303.15 K | 0.0709
in DMSO, 308.15 K | 0.0836
in DMSO, 313.15 K | 0.0949
in DMSO, 318.15 K | 0.109
in DMSO, 323.15 K | 0.119
in DMSO, 328.15 K | 0.139
in DMSO, 333.15 K | 0.159
in NMP, 283.15 K | 0.0305
in NMP, 288.15 K | 0.0406
in NMP, 293.15 K | 0.0474
in NMP, 298.15 K | 0.0525
in NMP, 303.15 K | 0.0606
in NMP, 308.15 K | 0.0687
in NMP, 313.15 K | 0.075
in NMP, 318.15 K | 0.0827
in NMP, 323.15 K | 0.0987
in NMP, 328.15 K | 0.113
in NMP, 333.15 K | 0.118
in acetone, 283.15 K | 0.00791
in acetone, 288.15 K | 0.00914
in acetone, 293.15 K | 0.0122
in acetone, 298.15 K | 0.0139
in acetone, 303.15 K | 0.0164
in acetone, 308.15 K | 0.018
in acetone, 313.15 K | 0.0201
in acetone, 318.15 K | 0.0236
in acetone, 323.15 K | 0.0278
in benzene, 283.15 K | 0.00583
in benzene, 288.15 K | 0.00619
in benzene, 293.15 K | 0.00676
in benzene, 298.15 K | 0.00771
in benzene, 303.15 K | 0.00967
in benzene, 308.15 K | 0.0119
in benzene, 313.15 K | 0.0152
in benzene, 318.15 K | 0.0181
in benzene, 323.15 K | 0.0208
in benzene, 328.15 K | 0.0259
in benzene, 333.15 K | 0.0303
in ethanol, 283.15 K | 0.0057
in ethanol, 288.15 K | 0.00581
in ethanol, 293.15 K | 0.00644
in ethanol, 298.15 K | 0.00702
in ethanol, 303.15 K | 0.00767
in ethanol, 308.15 K | 0.00837
in ethanol, 313.15 K | 0.0089
in ethanol, 318.15 K | 0.0103
in ethanol, 323.15 K | 0.0112
in ethanol, 328.15 K | 0.0128
in ethanol, 333.15 K | 0.0158
in isopropanol, 283.15 K | 0.00272
in isopropanol, 288.15 K | 0.00278
in isopropanol, 293.15 K | 0.00296
in isopropanol, 298.15 K | 0.00327
in isopropanol, 303.15 K | 0.00374
in isopropanol, 308.15 K | 0.0044
in isopropanol, 313.15 K | 0.00503
in isopropanol, 318.15 K | 0.00591
in isopropanol, 323.15 K | 0.00643
in isopropanol, 328.15 K | 0.00846
in isopropanol, 333.15 K | 0.0103
in methanol, 283.15 K | 0.00638
in methanol, 288.15 K | 0.00648
in methanol, 293.15 K | 0.00713
in methanol, 298.15 K | 0.00785
in methanol, 303.15 K | 0.0088
in methanol, 308.15 K | 0.00975
in methanol, 313.15 K | 0.0103
in methanol, 318.15 K | 0.0109
in methanol, 323.15 K | 0.0118
in methanol, 328.15 K | 0.0143
in n-propanol, 283.15 K | 0.00617
in n-propanol, 288.15 K | 0.00619
in n-propanol, 293.15 K | 0.00669
in n-propanol, 298.15 K | 0.00754
in n-propanol, 303.15 K | 0.00794
in n-propanol, 308.15 K | 0.00863
in n-propanol, 313.15 K | 0.0109
in n-propanol, 318.15 K | 0.0127
in n-propanol, 323.15 K | 0.0142
in n-propanol, 328.15 K | 0.0171
in n-propanol, 333.15 K | 0.0199
in toluene, 283.15 K | 0.00352
in toluene, 288.15 K | 0.00465
in toluene, 293.15 K | 0.00549
in toluene, 298.15 K | 0.00651
in toluene, 303.15 K | 0.0075
in toluene, 308.15 K | 0.00858
in toluene, 313.15 K | 0.0105
in toluene, 318.15 K | 0.0118
in toluene, 323.15 K | 0.014
in toluene, 328.15 K | 0.0164
in toluene, 333.15 K | 0.0202
